Reference: patent US9980943B2, “Methods of treating muscular dystrophy” (BOARD OF REGENTS OF THE NEVADA SYSTEM OF HIGHER EDUCATION, …, priority 2013, dated 2018)

What was measured:
Assay type in all cases: cell-based, mouse
[1] = test system: β-galactosidase in CMV-LacZ C2C12 myotubes; assay: CMV-LacZ secondary screen in C2C12 myotubes (β-Gal stabilizing assay); conditions: C2C12 CMV-LacZ myotubes, fold relative to DMSO
Summary of the method: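 Stable CMV-LacZ C2C12 clone; six-point curve 0.5–40 μM; duplicates.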

[2] = test system: β-galactosidase in CMV-LacZ C2C12 myoblasts; assay: CMV-LacZ secondary screen in C2C12 myoblasts (β-Gal stabilizing assay); conditions: CMV-LacZ C2C12 myoblasts
Summary of the method: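 Dose-response runs at 0.5–40 μM (0.5, 1, 5, 10, 20, 40 μM; N=2 per point) used a clonal C2C12 line carrying CMV-LacZ. Cells were assayed as myoblasts or as differentiated myotubes, and β-galactosidase levels were read with the FDG fluorogenic substrate.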

[3] = test system: α7 integrin (LacZ reporter in α7+/LacZ myotubes); assay: Myotube α7 integrin FDG assay (Burkin assay in myotubes, 96-well); conditions: myotubes
[4] = test system: α7 integrin (LacZ reporter in α7βgal+/− myoblasts); assay: Myoblast α7+/LacZ integrin FDG assay (Burkin assay in myoblasts, 96-well); conditions: α7+/LacZ myoblasts, 96-well

Compound	CMV-LACZ in Myotubes, signal relative to DMSO ([1]; 0.5 uM)	CMV-LACZ in Myotubes, signal relative to DMSO ([1]; 1 uM)	CMV-LACZ in Myotubes, signal relative to DMSO ([1]; 5 uM)	CMV-LACZ in Myotubes, signal relative to DMSO ([1]; 10 uM)	CMV-LACZ in Myotubes, signal relative to DMSO ([1]; 20 uM)	CMV-LACZ in Myotubes, signal relative to DMSO ([1]; 40 uM)	CMV-LACZ in Myoblasts (β-galactosidase activity relative to DMSO) ([2]; 0.5 uM)	CMV-LACZ in Myoblasts (β-galactosidase activity relative to DMSO) ([2]; 1 uM)	CMV-LACZ in Myoblasts (β-galactosidase activity relative to DMSO) ([2]; 5 uM)	CMV-LACZ in Myoblasts (β-galactosidase activity relative to DMSO) ([2]; 10 uM)	CMV-LACZ in Myoblasts (β-galactosidase activity relative to DMSO) ([2]; 20 uM)	CMV-LACZ in Myoblasts (β-galactosidase activity relative to DMSO) ([2]; 40 uM)	Burkin Assay in Myotubes, α7 integrin LacZ reporter signal relative to DMSO ([3]; 0.5 uM)	Burkin Assay in Myotubes, α7 integrin LacZ reporter signal relative to DMSO ([3]; 1 uM)	Burkin Assay in Myotubes, α7 integrin LacZ reporter signal relative to DMSO ([3]; 5 uM)	Burkin Assay in Myotubes, α7 integrin LacZ reporter signal relative to DMSO ([3]; 10 uM)	Burkin Assay in Myotubes, α7 integrin LacZ reporter signal relative to DMSO ([3]; 20 uM)	Burkin Assay in Myotubes, α7 integrin LacZ reporter signal relative to DMSO ([3]; 40 uM)	Burkin Assay in Myoblasts, signal relative to DMSO ([4]; 0.5 uM)	Burkin Assay in Myoblasts, signal relative to DMSO ([4]; 1 uM)	further results
Cc1cc([N+](=O)[O-])ccc1NC(=O)C(C)N1CCN(c2ccccn2)CC1 (stereo not drawn) [MLS000764729-01]	1.0358	1.1432	1.0779	0.9634	0.9656	1.1900	0.9865	0.9520	1.0259	0.8880	1.1200	0.7504	1.055	1.084	1.008	0.972	0.681	0.6075	1.088	1.0582	Burkin Assay in Myoblasts, signal relative to DMSO ([4]; 5 uM): 0.9816; Burkin Assay in Myoblasts, signal relative to DMSO ([4]; 10 uM): 0.9694; Burkin Assay in Myoblasts, signal relative to DMSO ([4]; 20 uM): 0.9581; Burkin Assay in Myoblasts, signal relative to DMSO ([4]; 40 uM): 0.726
c1ccc(-c2nn[nH]n2)nc1 [MLS000767397-01]	0.8737	1.0368	0.9425	0.9519	1.0144	1.0067	1.2748	1.0646	0.9910	0.9687	0.8485	1.1433	0.9294	0.9481	1.004	1.0608	0.9993	1.014	0.8862	0.839	Burkin Assay in Myoblasts, signal relative to DMSO ([4]; 5 uM): 1.476; Burkin Assay in Myoblasts, signal relative to DMSO ([4]; 10 uM): 0.9334; Burkin Assay in Myoblasts, signal relative to DMSO ([4]; 20 uM): 1.613; Burkin Assay in Myoblasts, signal relative to DMSO ([4]; 40 uM): 0.9754
CCOC(=O)C1=C(CC)Nc2ccccc2N=C1NC(=O)c1ccc(OC)c(S(=O)(=O)N2CCCCC2C)c1 (stereo not drawn) [MLS000776409-01]	1.0552	0.9752	1.0186	1.1035	1.1040	1.1540	1.1220	0.9103	0.8929	0.9052	1.3344	0.2105	0.8925	1.029	0.882	0.9284	0.8949	0.8056	1.1194	1.007	Burkin Assay in Myoblasts, signal relative to DMSO ([4]; 5 uM): 0.9389; Burkin Assay in Myoblasts, signal relative to DMSO ([4]; 10 uM): 0.9838; Burkin Assay in Myoblasts, signal relative to DMSO ([4]; 20 uM): 0.5087; Burkin Assay in Myoblasts, signal relative to DMSO ([4]; 40 uM): 0.3444
